Where “and” joins values, the source holds several entries; their conditions need not be identical. Equal values may be shown once. Read-outs that look alike come from different tables or passages of the source.
Tests used:
DPP8 [1] = biological target: T1, DPP8 (Homo sapiens, UniProt Q6V1X1); experiment: biochemical; assay type: biochemical
T1 construct: purchased Proteros Biostructures GmbH, Germany
Procedure: (§1) Enzyme activity of DPP4, DPP8, DPP9 (Proteros Biostructures GmbH, Germany) and PREP (Sigma Aldrich, USA) was determined by measuring the initial velocity of AMC release from the fluorogenic substrate GP-AMC (Sigma Aldrich, USA) using a Tecan Spark® 10 M multimode microplate reader (Tecan Group Ltd., Switzerland) in activity buffer (20 mM HEPES/KOH pH 7.3, 110 mM potassium acetate, 2 mM Mg acetate, 0.5 mM EGTA, 0.02% Tween 20, supplemented with 1 mM DTT) and a final volume of 20 μL for maximal 60 min at 30 °C. Prior to activity measurement, 10 nM enzyme was incubated for 45 min at 30 °C and gentle shaking with the inhibitor compounds in concentrations ranging from 0 to 100 μM. The compounds were dissolved in DMSO and diluted in activity buffer (final DMSO concentration: 1%). […] IC50 values were calculated using Graph-Pad Prism v10.2.3 using the equation: [Inhibitor] vs. response—Variable slope (four parameters). All measurements were performed in triplicates and error bars represent standard errors of the fit.

DPP8 [2] = biological target: T1, DPP8; experiment: Time-dependent DPP8 inhibition kinetics (kobs, KI, kinact, kapp); assay type: biochemical
Procedure: (§2) To calculate the reaction rate of covalent bond formation between DPP proteins and inhibitor, kinact, KI and kapp was determined as previously described[30],[51]. Therefore, 250 µM GP-AMC was added simultaneously with a serial dilution of the inhibitor to 10 nM enzyme. Enzyme activity was measured for a maximum of 120 min at 30 °C, and fluorescence intensities were then plotted against time. Data was fitted to the following equation: Y=(vi/kobs)*(1−exp(−kobs*X)) using Graph-Pad Prism v10.2.3. The obtained pseudo-first-order rate constant was used to determine the maximum enzyme inhibition rate (kinact) and binding affinity (KI) by fitting the plot of kobs against inhibitor concentration to the following equation: Y=kinact/1+(KI/[I]) . The efficiency of covalent bond formation (kapp) was calculated by the ratio of kinact/KI. All measurements were performed in triplicates and error bars represent standard errors of the fit.

[3] = tested on: serine hydrolases (≡FP target proteins) in HEK293 cell lysates; experiment: Competitive ABPP with fluorophosphonate-alkyne (≡FP) in HEK293 cell lysates; assay type: binding, H. sapiens; details: 50 µM pre-incubation 2 h, 2 µM ≡FP
DPP9 [4] = biological target: T2, DPP9 (Homo sapiens, UniProt Q86TI2); experiment: biochemical; assay type: biochemical; set-up: purchased Proteros Biostructures GmbH, Germany
Procedure: as §1
Target sequence in this assay (Q86TI2 whole entry): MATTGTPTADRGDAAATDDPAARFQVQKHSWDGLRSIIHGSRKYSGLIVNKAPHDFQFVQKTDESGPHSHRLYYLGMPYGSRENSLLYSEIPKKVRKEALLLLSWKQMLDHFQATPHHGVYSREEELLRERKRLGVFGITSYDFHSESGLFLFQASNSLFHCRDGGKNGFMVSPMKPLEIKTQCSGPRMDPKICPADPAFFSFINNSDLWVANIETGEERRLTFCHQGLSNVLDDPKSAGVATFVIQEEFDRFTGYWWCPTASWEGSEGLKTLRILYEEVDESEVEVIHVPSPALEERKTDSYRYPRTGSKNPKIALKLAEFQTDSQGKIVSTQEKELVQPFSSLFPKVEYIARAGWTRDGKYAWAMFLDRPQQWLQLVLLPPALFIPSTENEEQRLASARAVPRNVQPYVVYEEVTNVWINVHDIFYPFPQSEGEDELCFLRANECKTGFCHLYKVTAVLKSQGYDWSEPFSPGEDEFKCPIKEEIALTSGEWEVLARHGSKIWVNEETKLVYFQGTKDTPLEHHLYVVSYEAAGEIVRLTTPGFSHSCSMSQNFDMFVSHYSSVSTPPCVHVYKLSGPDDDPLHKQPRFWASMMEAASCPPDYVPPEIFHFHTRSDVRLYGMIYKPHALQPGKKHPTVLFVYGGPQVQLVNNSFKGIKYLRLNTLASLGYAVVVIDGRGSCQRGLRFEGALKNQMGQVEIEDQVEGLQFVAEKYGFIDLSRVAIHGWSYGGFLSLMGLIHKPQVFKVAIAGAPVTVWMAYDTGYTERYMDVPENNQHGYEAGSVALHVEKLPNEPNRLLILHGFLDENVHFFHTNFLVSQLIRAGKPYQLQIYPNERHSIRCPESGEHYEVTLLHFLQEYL

DPP9 [5] = biological target: T2, DPP9; experiment: Time-dependent DPP9 inhibition kinetics (kobs, KI, kinact, kapp); assay type: biochemical; set-up: purchased Proteros Biostructures GmbH, Germany
Procedure: as §2
Target sequence in this assay (Q86TI2 whole entry): as above

DPP9 [6] = biological target: T2, DPP9; experiment: Native MS of DPP9 dimer after incubation with inhibitor; details: 50 µM, 90 min
Target sequence in this assay (Q86TI2 20-863): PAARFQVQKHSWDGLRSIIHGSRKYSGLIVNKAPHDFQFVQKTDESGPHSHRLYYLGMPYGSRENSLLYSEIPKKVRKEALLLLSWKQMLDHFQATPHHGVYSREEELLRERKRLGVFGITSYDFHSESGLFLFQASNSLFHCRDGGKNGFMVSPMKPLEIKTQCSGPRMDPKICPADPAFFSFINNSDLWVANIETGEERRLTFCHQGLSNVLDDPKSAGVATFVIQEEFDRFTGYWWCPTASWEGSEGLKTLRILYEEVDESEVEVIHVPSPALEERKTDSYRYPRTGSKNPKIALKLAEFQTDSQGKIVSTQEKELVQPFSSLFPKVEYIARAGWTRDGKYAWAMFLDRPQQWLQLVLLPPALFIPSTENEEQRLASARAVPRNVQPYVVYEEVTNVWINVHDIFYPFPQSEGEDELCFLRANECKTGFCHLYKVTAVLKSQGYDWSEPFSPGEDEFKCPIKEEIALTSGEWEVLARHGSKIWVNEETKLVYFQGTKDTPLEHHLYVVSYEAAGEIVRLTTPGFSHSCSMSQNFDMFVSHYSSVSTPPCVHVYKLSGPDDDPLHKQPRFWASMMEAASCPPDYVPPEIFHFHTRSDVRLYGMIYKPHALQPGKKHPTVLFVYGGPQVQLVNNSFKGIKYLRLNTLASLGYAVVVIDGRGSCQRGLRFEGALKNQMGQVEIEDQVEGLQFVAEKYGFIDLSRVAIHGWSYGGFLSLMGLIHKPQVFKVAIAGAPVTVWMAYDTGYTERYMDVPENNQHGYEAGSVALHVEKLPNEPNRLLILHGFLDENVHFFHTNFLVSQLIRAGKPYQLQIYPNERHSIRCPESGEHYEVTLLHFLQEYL
Procedure: For this purpose, a rebuffering procedure using 10 kDa molecular weight cut-off spin-filter columns (Merck Millipore, USA) was applied for five cycles[58]. The resulting protein concentration was determined using microvolume spectroscopy (DS-11+, DeNovix, USA) and adjusted to 5 µM with 200 mM NH4OAc. […] A total number of 1000 MS spectra were recorded in positive EMR mode on an Exactive Plus EMR Orbitrap mass spectrometer (Thermo Fisher Scientific, USA) calibrated with CsI (2 mg mL^-1; Thermo Fisher Scientific, USA).
UniDec software (version 6.0.4) was used for mass deconvolution[59]. For this purpose, the default settings were used within an m/z range of 6500 to 9500, with the exception of a higher deconvolution resolution (sample mass every 1 Da), a narrower peak detection window (peak detection range of 80 Da) and a total peak normalization. GraphPad Prism v8.0.1 was used for data visualization.

DPP4 = biological target: T3, DPP4 (Homo sapiens, UniProt P27487); experiment: biochemical; assay type: biochemical
T3 construct: purchased Proteros Biostructures GmbH, Germany
Procedure: as §1

T1 sequence (Q6V1X1 whole entry): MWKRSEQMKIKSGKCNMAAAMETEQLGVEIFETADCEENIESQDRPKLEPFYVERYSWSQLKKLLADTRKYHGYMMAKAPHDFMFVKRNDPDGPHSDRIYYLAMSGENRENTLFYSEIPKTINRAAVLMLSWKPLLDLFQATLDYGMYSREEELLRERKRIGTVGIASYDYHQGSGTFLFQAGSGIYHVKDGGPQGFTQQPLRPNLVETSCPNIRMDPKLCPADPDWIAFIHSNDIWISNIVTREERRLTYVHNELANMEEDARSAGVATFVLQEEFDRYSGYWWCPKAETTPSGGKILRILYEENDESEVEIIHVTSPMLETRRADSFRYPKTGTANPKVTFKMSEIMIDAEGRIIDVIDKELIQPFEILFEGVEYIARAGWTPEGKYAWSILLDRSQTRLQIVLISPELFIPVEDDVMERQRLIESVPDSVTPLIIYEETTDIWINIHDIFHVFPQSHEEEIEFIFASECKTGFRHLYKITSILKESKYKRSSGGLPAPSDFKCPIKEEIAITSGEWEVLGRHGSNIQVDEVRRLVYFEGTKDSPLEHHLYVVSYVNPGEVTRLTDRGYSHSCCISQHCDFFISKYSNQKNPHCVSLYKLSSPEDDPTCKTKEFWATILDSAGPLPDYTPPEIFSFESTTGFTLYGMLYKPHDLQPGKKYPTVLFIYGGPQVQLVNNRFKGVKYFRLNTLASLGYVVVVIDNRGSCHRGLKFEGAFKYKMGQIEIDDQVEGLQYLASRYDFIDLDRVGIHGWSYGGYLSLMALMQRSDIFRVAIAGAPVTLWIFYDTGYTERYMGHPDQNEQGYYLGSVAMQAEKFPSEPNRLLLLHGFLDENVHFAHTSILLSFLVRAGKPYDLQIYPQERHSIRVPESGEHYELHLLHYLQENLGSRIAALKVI
T3 sequence (P27487 whole entry): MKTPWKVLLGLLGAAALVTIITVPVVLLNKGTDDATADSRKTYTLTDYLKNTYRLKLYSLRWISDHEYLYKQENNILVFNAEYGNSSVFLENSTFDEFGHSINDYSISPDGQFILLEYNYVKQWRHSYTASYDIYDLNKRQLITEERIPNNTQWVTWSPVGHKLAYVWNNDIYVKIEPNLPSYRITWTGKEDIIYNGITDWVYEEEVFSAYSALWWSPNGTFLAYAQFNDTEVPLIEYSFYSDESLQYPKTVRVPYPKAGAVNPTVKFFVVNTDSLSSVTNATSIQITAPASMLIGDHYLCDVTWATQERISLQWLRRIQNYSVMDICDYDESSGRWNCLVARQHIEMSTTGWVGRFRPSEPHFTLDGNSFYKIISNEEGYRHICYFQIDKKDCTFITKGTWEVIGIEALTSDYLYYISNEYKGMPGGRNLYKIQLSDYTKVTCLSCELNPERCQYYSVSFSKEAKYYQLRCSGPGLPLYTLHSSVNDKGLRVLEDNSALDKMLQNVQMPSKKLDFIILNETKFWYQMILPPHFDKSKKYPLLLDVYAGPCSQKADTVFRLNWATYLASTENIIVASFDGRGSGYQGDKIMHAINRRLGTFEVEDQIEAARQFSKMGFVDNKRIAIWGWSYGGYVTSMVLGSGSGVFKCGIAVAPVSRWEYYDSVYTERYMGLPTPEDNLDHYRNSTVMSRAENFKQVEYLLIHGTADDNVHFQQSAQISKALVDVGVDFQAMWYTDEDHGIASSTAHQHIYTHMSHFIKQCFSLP

**Q.** For `N[C@H]1CCCN([P@@](N)(=O)NS(=O)(=O)O)C1=O` [Sulphostin], which IC50 (DPP8 [1]) is on record?
**A.** 6.93 ± 0.62 µM

**Q.** And the remaining activity at 1.5625 µM (DPP8 [1]; read-out: DPP8 activity [%], c 1562.5 nM)?
**A.** 93.5%

**Q.** What about the remaining activity at 3.125 µM (DPP8 [1]; read-out: DPP8 activity [%], c 3125 nM) of the same compound?
**A.** 73.6%

**Q.** And the remaining activity at 6.25 µM (DPP8 [1]; read-out: DPP8 activity [%], c 6250 nM)?
**A.** 47.7%

**Q.** What about the remaining activity at 25 µM (DPP8 [1]; read-out: DPP8 activity [%], c 25000 nM) of the same compound?
**A.** 11.8%

**Q.** And the remaining activity at 50 µM (DPP8 [1]; read-out: DPP8 activity [%], c 50000 nM)?
**A.** 5.62%

**Q.** What about the remaining activity at 100 µM (DPP8 [1]; read-out: DPP8 activity [%], c 100000 nM) of the same compound?
**A.** 3.57%

**Q.** And the “kobs DPP8” value (DPP8 [2]; c 1.5625 µM)?
**A.** 3.383e-05 s⁻¹

**Q.** And the “kobs DPP8” value (DPP8 [2]; c 6.25 µM)?
**A.** 4.011e-05 s⁻¹

**Q.** And the “kobs DPP8” value (DPP8 [2]; c 25 µM)?
**A.** 0.0001308 s⁻¹

**Q.** What about the “kobs DPP8” value (DPP8 [2]; c 50 µM) of the same compound?
**A.** 0.0001589 s⁻¹

**Q.** What about the “kapp DPP8” value (DPP8 [2]; ratio kinact/KI) of the same compound?
**A.** 11 M⁻¹ s⁻¹

**Q.** What about the KI (inactivation) (DPP8 [2]; read-out: KI [M] best fit DPP8, source data) of the same compound?
**A.** 2.11e-05 M

**Q.** What about the “competition of ≡FP labeling” value [3] of the same compound?
**A.** significantly competed only the labeling of DPP8/9

**Q.** What about the IC50 (DPP9 [4]) of the same compound?
**A.** 1.39 ± 0.108 µM

**Q.** What about the remaining activity at 0.15625 µM (DPP9 [4]; read-out: DPP9 activity [%], c 156.25 nM) of the same compound?
**A.** 93.2%

**Q.** And the remaining activity at 0.3125 µM (DPP9 [4]; read-out: DPP9 activity [%], c 312.5 nM)?
**A.** 87.7%

**Q.** What about the remaining activity at 2.5 µM (DPP9 [4]; read-out: DPP9 activity [%], c 2500 nM) of the same compound?
**A.** 28.5%

**Q.** And the remaining activity at 5 µM (DPP9 [4]; read-out: DPP9 activity [%], c 5000 nM)?
**A.** 16.7%

**Q.** What about the remaining activity at 10 µM (DPP9 [4]; read-out: DPP9 activity [%], c 10000 nM) of the same compound?
**A.** 10.8%

**Q.** What about the remaining activity at 25 µM (DPP9 [4]; read-out: DPP9 activity [%], c 25000 nM) of the same compound?
**A.** 5%

**Q.** What about the remaining activity at 50 µM (DPP9 [4]; read-out: DPP9 activity [%], c 50000 nM) of the same compound?
**A.** 3.52%

**Q.** What about the remaining activity at 100 µM (DPP9 [4]; read-out: DPP9 activity [%], c 100000 nM) of the same compound?
**A.** 2.34%

**Q.** And the “kobs DPP9” value (DPP9 [5]; c 0.15625 µM)?
**A.** 6.239e-05 s⁻¹

**Q.** What about the “kobs DPP9” value (DPP9 [5]; c 5 µM) of the same compound?
**A.** 0.0002112 s⁻¹

**Q.** What about the “kapp DPP9” value (DPP9 [5]; ratio kinact/KI) of the same compound?
**A.** 317 M⁻¹ s⁻¹

**Q.** What about the KI (inactivation) (DPP9 [5]; read-out: KI [M] best fit DPP9, source data) of the same compound?
**A.** 7.33e-07 M

**Q.** What about the “Difference [Da] between doubly and singly modified DPP9 dimer” value (DPP9 [6]) of the same compound?
**A.** 156 Da

**Q.** What about the “Intensity [%] of DPP9 dimer with one modification” value (DPP9 [6]) of the same compound?
**A.** 44.37%

**Q.** What about the “Intensity [%] of DPP9 dimer with two modifications” value (DPP9 [6]) of the same compound?
**A.** 32.64%

**Q.** And the “Intensity [%] of unmodified DPP9 dimer” value (DPP9 [6])?
**A.** 22.99%

**Q.** And the “increase of DPP9 molecular weight, both active sites of the dimer modified” value (DPP9 [6])?
**A.** 311 Da

**Q.** What about the “increase of DPP9 molecular weight, first adduct (one active site of the dimer modified)” value (DPP9 [6]) of the same compound?
**A.** 155 Da

**Q.** For `CC(C)[C@H](N)C(=O)N1CCC[C@H]1B(O)O` [VbP, Val-boroPro, reference compound], which “DPP4 activity [%]” value (DPP4; c 1.6 nM) is on record?
**A.** 67.4885% and 113.658% and 85.6002%

**Q.** And the “DPP4 activity [%]” value (DPP4; c 3.1 nM)?
**A.** 70.6772% and 79.559% and 93.9074%

**Q.** What about the “DPP4 activity [%]” value (DPP4; c 6.3 nM) of the same compound?
**A.** 51.4161% and 71.0555% and 74.1702%

**Q.** What about the “DPP4 activity [%]” value (DPP4; c 25 nM) of the same compound?
**A.** 4.534% and 5.3397% and 4.7469%

**Q.** And the “DPP4 activity [%]” value (DPP4; c 50 nM)?
**A.** 3.474% and 3.265% and 3.283%

**Q.** What about the “DPP4 activity [%]” value (DPP4; c 100 nM) of the same compound?
**A.** 2.2772% and 2.383% and 2.483%

**Q.** How did the IC50 (DPP8 [1]; GP-AMC 250 µM, 10 nM enzyme, 45 min pre-incubation at 30 °C, read-out: IC50 DPP8) turn out when `NC1CCCN(P(N)(=O)NS(=O)(=O)O)C1=O` (centres unmarked) [WTC0260B] was run?
**A.** 27.9 µM

**Q.** And the IC50 (DPP9 [4]; GP-AMC 250 µM, 10 nM enzyme, 45 min pre-incubation at 30 °C, read-out: IC50 DPP9)?
**A.** 6.26 µM
